Laboratory results from PubChem BioAssay (NCI).
Several values for one entry are separate records, joined by “and”; a condition that tells them apart may be missing. Identical values can stand only once.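 Compound exposure: 48 hours, 5 concentrations, 96-well plates. GI50 = concentration required for 50% inhibition of growth. TGI: total growth inhibition.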

Legend:
Experiment in all cases: NCI-60 cell line screen, 48 h; in the data active = GI50 below about 0.43 µM; inactive = the rest
[1] = system: EKVX NSCLC
[2] = system: HCT-116 colon
[3] = system: K-562 leukemia
[4] = system: LOX IMVI melanoma
[5] = system: MOLT-4 leukemia
[6] = system: SF-268 CNS
[7] = system: SF-295 CNS
[8] = system: SNB-75 CNS
[9] = system: T-47D breast
[10] = system: U251 CNS

CCc1cc2c(c(OCC(F)(F)F)c(C(=O)NC3CCN(C(=O)CO)CC3)n2C)c(=O)n1CC(=O)c1ccccc1
> 100 µM: TGI [1] | TGI [2] | TGI [3] | TGI [4] | TGI [5] | TGI [6] | TGI [7] | TGI [8] | TGI [9] | TGI [10]
inactive: GI50 [1] > 100 µM | GI50 [2] 63.5 µM | GI50 [3] 34.4 µM | GI50 [4] > 80 µM | GI50 [5] 37.2 µM | GI50 [6] > 90.3 µM | GI50 [7] 34.7 µM | GI50 [8] > 33.9 µM | GI50 [9] > 65.9 µM | GI50 [10] > 82.9 µM

CCn1nc(C2CCN(C(=O)CCO)CC2)nc1-c1cnc(N)c(-c2nnc(C(C)(C)C)o2)n1
active: GI50 [8] 0.155 µM | GI50 [9] 0.0731 µM
0.57 µM: TGI [9]
> 100 µM: TGI [1] | TGI [3] | TGI [6] | TGI [7] | TGI [8] | TGI [10]
inactive: GI50 [1] 6.69 µM | GI50 [2] 18.8 µM | GI50 [3] 27.8 µM | GI50 [4] 3.2 µM | GI50 [5] 2.33 µM | GI50 [6] 23.1 µM | GI50 [7] 3.27 µM | GI50 [10] > 65.5 µM
39.2 µM: TGI [5]
19.8 µM: TGI [4]
58.7 µM: TGI [2]

Cc1ccc(/C(=N/NS(=O)(=O)c2cc(C)c(Cl)cc2Cl)Sc2cc(Cl)c(C)cc2S(N)(=O)=O)cc1
> 100 µM: TGI [1] | TGI [2] | TGI [3] | TGI [4] | TGI [5] | TGI [6] | TGI [7] | TGI [8] | TGI [9] | TGI [10]
inactive: GI50 [1] 70.9 µM | GI50 [2] > 100 µM | GI50 [3] 70.1 µM | GI50 [4] > 100 µM | GI50 [5] 17.9 µM | GI50 [6] > 100 µM | GI50 [7] > 100 µM | GI50 [8] > 100 µM | GI50 [9] > 100 µM | GI50 [10] > 100 µM

O=c1[nH]c(-c2ccc(Cl)c(Cl)c2)cn1-c1ccc(Cl)cc1
37.5 µM: TGI [8]
> 100 µM: TGI [1] | TGI [4]
38.9 µM: TGI [5]
inactive: GI50 [1] 35.4 µM | GI50 [2] 15.8 µM | GI50 [3] 21.5 µM | GI50 [4] 36.2 µM | GI50 [5] 20.8 µM | GI50 [6] 21.6 µM | GI50 [7] 25 µM | GI50 [8] 18.6 µM | GI50 [9] 25.5 µM | GI50 [10] 17.4 µM
64 µM: TGI [7]
34 µM: TGI [2]
46.9 µM: TGI [3]
84.5 µM: TGI [9]
42.8 µM: TGI [10]
59.3 µM: TGI [6]

O=Cc1ccc(-c2ccc(-c3nc4ccccc4s3)cc2)o1
inactive: GI50 [1] > 100 µM | GI50 [2] > 100 µM | GI50 [3] > 100 µM | GI50 [4] 60.2 µM | GI50 [5] > 100 µM | GI50 [6] 72.6 µM | GI50 [7] 41.7 µM | GI50 [8] > 100 µM | GI50 [9] > 100 µM | GI50 [10] 35.2 µM
> 100 µM: TGI [1] | TGI [2] | TGI [3] | TGI [4] | TGI [5] | TGI [6] | TGI [7] | TGI [8] | TGI [9] | TGI [10]

CCCCCCCCCCCCCCCCn1cc[n+](C)c1
2.12 µM: TGI [6]
1.96 µM: TGI [1]
1.53 µM: TGI [10]
active: GI50 [1] 0.422 µM | GI50 [2] 0.267 µM | GI50 [3] 0.131 µM | GI50 [4] 0.412 µM | GI50 [5] 0.306 µM | GI50 [7] 0.318 µM | GI50 [9] 0.398 µM | GI50 [10] 0.356 µM
1.5 µM: TGI [5]
1.64 µM: TGI [4]
1.22 µM: TGI [2]
1.13 µM: TGI [3]
1.43 µM: TGI [7]
inactive: GI50 [6] 0.837 µM

COc1ccc(Sc2[nH]c(C=O)c3ccccc23)cc1
34.1 µM: TGI [1]
19 µM: TGI [5]
14.2 µM: TGI [3]
26.9 µM: TGI [7]
25.4 µM: TGI [4]
24.8 µM: TGI [10]
30.2 µM: TGI [9]
25.5 µM: TGI [8]
inactive: GI50 [1] 5.49 µM | GI50 [2] 12.7 µM | GI50 [3] 2.14 µM | GI50 [4] 12.3 µM | GI50 [5] 1.31 µM | GI50 [6] 14.9 µM | GI50 [7] 9.16 µM | GI50 [8] 11.9 µM | GI50 [9] 9.08 µM | GI50 [10] 12.3 µM
31.2 µM: TGI [6]
25.3 µM: TGI [2]

Cc1nnn(C)c1-c1cnc2c3ccc(C(C)(C)O)cc3n([C@H](c3ccccc3)C3CCOCC3)c2c1
> 47.5 µM: TGI [10]
> 100 µM: TGI [3] | TGI [5] | TGI [6] | TGI [9]
1.52 µM: TGI [4]
active: GI50 [1] 0.221 µM | GI50 [2] 0.0149 µM | GI50 [3] < 0.01 µM | GI50 [4] < 0.01 µM | GI50 [5] 0.197 µM | GI50 [7] 0.0555 µM | GI50 [8] < 0.01 µM | GI50 [9] 0.0104 µM | GI50 [10] 0.27 µM
> 71.7 µM: TGI [1]
16.4 µM: TGI [2]
inactive: GI50 [6] 5.22 µM
20.3 µM: TGI [8]
20.5 µM: TGI [7]

COc1ccc2c(n1)Sc1nc3ccccc3nc1N2
35.1 µM: TGI [5]
60.3 µM: TGI [1]
> 100 µM: TGI [2] | TGI [3] | TGI [4] | TGI [6] | TGI [7] | TGI [8] | TGI [9]
52.7 µM: TGI [10]

CCCCCSc1ccc2nc(NC(=O)OCC)sc2c1
inactive: GI50 [1] 0.557 µM | GI50 [2] 0.466 µM | GI50 [4] 0.455 µM | GI50 [5] 0.85 µM | GI50 [6] 0.866 µM | GI50 [9] 0.583 µM
> 100 µM: TGI [1] | TGI [2] | TGI [3] | TGI [4] | TGI [5] | TGI [6] | TGI [9]
active: GI50 [3] 0.393 µM | GI50 [7] 0.394 µM | GI50 [8] 0.41 µM | GI50 [10] 0.41 µM
20.2 µM: TGI [8]
10.6 µM: TGI [7]
11 µM: TGI [10]

CC(=O)OCC1OC(SC2=N/C(=C\c3ccc(Br)s3)C(=O)N2c2ccccc2)C(OC(C)=O)C(OC(C)=O)C1OC(C)=O (stereo not drawn)
61.4 µM and > 100 µM: TGI [8]
> 100 µM: TGI [1] | TGI [2] | TGI [3] | TGI [4] | TGI [5] | TGI [6] | TGI [7] | TGI [9] | TGI [10]
inactive: GI50 [2] 25.5 µM and 61.2 µM | GI50 [3] > 100 µM and 18.9 µM | GI50 [5] > 100 µM and 37.7 µM | GI50 [8] 25.1 µM and > 100 µM | GI50 [9] 96.5 µM and 27.8 µM | GI50 [10] 28 µM and 63.1 µM

COc1ccc(O)c(/C=N\Nc2ccccc2)c1
> 100 µM: TGI [1] | TGI [2] | TGI [3] | TGI [6] | TGI [8] | TGI [9] | TGI [10]
13 µM: TGI [4]
18.2 µM: TGI [5]

CN1CCc2ccccc2C1Cc1ccccc1NC(=O)c1sc2ccccc2c1Cl (stereo not drawn)
> 100 µM: TGI [1] | TGI [2] | TGI [3] | TGI [5] | TGI [6] | TGI [7] | TGI [8] | TGI [9] | TGI [10]

CCNCC(=O)Nc1ccc2c(c1)C(=O)c1ccc(NC(=O)CNCC)cc1C2=O
17.1 µM: TGI [9]
14.2 µM: TGI [7]
16.6 µM: TGI [6]
4.91 µM: TGI [3]
20.5 µM: TGI [1]
5.3 µM: TGI [10]
6.58 µM: TGI [4]
7.52 µM: TGI [2]
7.44 µM: TGI [8]

O=S(O)O.O=S(O)O.[Co].[NH2-].[NH2-].[NH2-].[NH2-]
> 100 µM: TGI [1] | TGI [2] | TGI [3] | TGI [4] | TGI [6] | TGI [7] | TGI [8] | TGI [9] | TGI [10]
inactive: GI50 [1] > 100 µM | GI50 [2] > 100 µM | GI50 [3] > 100 µM | GI50 [4] > 100 µM | GI50 [6] > 100 µM | GI50 [7] > 100 µM | GI50 [8] > 100 µM | GI50 [9] > 100 µM | GI50 [10] > 100 µM
